Assay results reported in publication PMC11013662, “New Thiosemicarbazide Derivatives with Multidirectional Biological Action” (Molecules, 2024).
≈ marks a conversion by molar mass, not a printed value.

Key:
[1] = system: Staphylococcus spp. strains; test: Broth microdilution MIC / MBC, staphylococci; format: cell-based
Method: (§1) The microdilution method was used to determine the MIC values of newly synthesized compounds. The antimicrobial activity of the thiosemicarbazides series was tested on ten reference bacterial strains purchased from the American Type Culture Collection (ATCC). Seven Gram-positive reference strains (S. aureus ATCC 29213, S. aureus ATCC 43300, S. aureus ATCC 6538, S. aureus ATCC 25923, S. epidermidis ATCC 12228, M. luteus ATCC 10240, and B. cereus ATCC 10876) and three Gram-negative reference bacteria (K. pneumoniae ATCC 13883, E. coli ATCC 25922, S. typhimurium ATCC 14028) were used. […]
(§2) A 96-well microtiter plate and microbroth two-fold dilution method was used to determine the minimum inhibitory concentration (MIC) according to the EUCAST (European Committee on Antimicrobial Susceptibility Testing) reference recommendation. […] After incubation, the growth of bacteria was monitored by a Biotek ELx800 (Biokom, Janki, Poland) spectrophotometer at 600 nm (OD600). […]
(§3) The in vitro antimicrobial activity of the tested compounds was determined by the MIC, which was defined as the lowest concentration of the compound tested at which no visible growth of the test bacteria was observed. […] MBC was determined after the broth dilution period of an MIC test has been completed. […] The MBC values were determined by observing the first clear area on the agar plate that has no observable bacterial growth.

Gram-positive bacteria = test: Broth microdilution MIC / MBC, summary over Gram-positive strains; format: cell-based
Method: as §1, §2, §3

Row | Structure (SMILES) | MBC/MIC ratio ([1]; against staphylococci, bacteriostatic) | MIC ([1]; all Staphylococcus spp. strains except MRSA ATCC 43300) [mg/L] | MBC (Gram-positive bacteria) [mg/L] | MIC range (Gram-positive bacteria) [mg/L]
1 | O=C(NNC(=S)Nc1cccc(Cl)c1)c1cccc(C(F)(F)F)c1 [Compound 3a, 4-(3-Chlorophenyl)-1-(3-trifluoromethylbenzoyl)thiosemicarbazide] | > 4 | 1.95 (≈ 5.22 µM) | – | –
2 | O=C(NNC(=S)Nc1cccc(F)c1)c1cccc(C(F)(F)F)c1 [Compound 3e, 1-(3-Trifluoromethylbenzoyl)-4-(3-fluorophenyl)thiosemicarbazide] | – | – | > 1000 | 7.8 to 31.25
